Type in all cases: functional
The test system of experiment [1] is Athelia rolfsii. The experiment is described as follows: Fungicidal activity against Athelia rolfsii assessed as fungal growth inhibition at 100 ppm by agar dilution method. The conditions noted are these: Agroathelia rolfsii; read-out: GI.
The subject of experiment [2] is Pythium. The experiment is described as follows: Fungicidal activity against Pythium sp. assessed as fungal growth inhibition at 100 ppm by agar dilution method. The conditions noted are these: read-out: GI.
For experiment [3], the system named is Pythium. In words: Fungicidal activity against Pythium sp. assessed as fungal growth inhibition at 10 ppm by agar dilution method. As to conditions: read-out: GI.
Experiment [4] deals with Athelia rolfsii. In words: Fungicidal activity against Athelia rolfsii assessed as fungal growth inhibition at 10 ppm by agar dilution method. The conditions noted are these: Agroathelia rolfsii; read-out: GI.

For the compound `CCOP1(=S)OCc2cc(C(C)CC)ccc2O1` (stereo unspecified), the inhibition of growth at 100 ppm with Athelia rolfsii [1] was 67%; with Pythium [2] it was 56%.
For `CCCCc1ccc2c(c1)COP(=S)(OCC)O2` (stereo unspecified), the inhibition of growth at 100 ppm in the experiment with Athelia rolfsii [1] is 76%; in the experiment with Pythium [2] it was 61%.
Taken in the same sequence, the figures for `CCCCc1ccc2c(c1)COP(=S)(Oc1ccc(C)cc1C(C)C)O2` (stereo unspecified) were 41% and 39%.
In the case of `CCCCc1ccc2c(c1)COP(=S)(Oc1cc(C)ccc1C(C)C)O2` (stereo unspecified), the inhibition of growth at 100 ppm worked out at 58% with Athelia rolfsii [1] and 83% in the experiment on Pythium [2]. Besides, the inhibition of growth at 10 ppm with Pythium [3] was found to be 23%.
With `CCCc1ccc2c(c1)COP(=S)(OCCc1ccccc1)O2` (stereo unspecified), the inhibition of growth at 100 ppm with Athelia rolfsii [1] and in the experiment on Pythium [2] was 48% throughout.
As for `CCCc1ccc2c(c1)COP(=S)(Oc1cc(C)ccc1C(C)C)O2` (stereo unspecified), the inhibition of growth at 100 ppm with Athelia rolfsii [1] was 37%; in the experiment with Pythium [2], 53%.
Consider `CCCc1ccc2c(c1)COP(=S)(Oc1ccc(C)cc1C(C)C)O2` (stereo unspecified), for which the inhibition of growth at 100 ppm in the experiment on Athelia rolfsii [1] was 27%; in the experiment with Pythium [2], 3%.
With `CCCc1ccc2c(c1)COP(=S)(OCC)O2` (stereo unspecified), the figures for the inhibition of growth at 100 ppm with Athelia rolfsii [1] and in the experiment on Pythium [2] were 84% and 56%, respectively. Further, in the experiment with Athelia rolfsii [4], the inhibition of growth at 10 ppm worked out at 63%.
With `CCOP1(=S)OCc2cc(C(C)C)ccc2O1` (stereo unspecified), the inhibition of growth at 100 ppm was 83% in the experiment with Athelia rolfsii [1] and 66% with Pythium [2]. In addition, the inhibition of growth at 10 ppm in the experiment with Athelia rolfsii [4] is 45%.
For the compound `CCOP1(=S)OCc2cc(CC)ccc2O1` (stereo unspecified), the inhibition of growth at 100 ppm in the experiment with Athelia rolfsii [1] worked out at 91%; in the experiment on Pythium [2], 82%. Also, the inhibition of growth at 10 ppm in the experiment on Athelia rolfsii [4] is 66%; in the experiment with Pythium [3] it was 42%.
On to `CC(C)OP(=O)(OC(C)C)SCc1ccccc1` [IPROBENFOS], for which the inhibition of growth at 100 ppm in the experiment with Athelia rolfsii [1] amounted to 100%; in the experiment on Pythium [2], 89%. The inhibition of growth at 10 ppm came to 69% in the experiment with Athelia rolfsii [4] and 42% in the experiment on Pythium [3].
Turning to `COP1(=S)OCc2ccccc2O1` (stereo unspecified) [SALITHION], the inhibition of growth at 100 ppm in the experiment on Athelia rolfsii [1] is 61%; with Pythium [2], 75%.

These data come from ChEMBL document CHEMBL3045739, “Synthesis and Fungicidal Activity of 6-Alkyl Six-membered Cyclic Thiophosphates” (1997).
